From patent US12139520B2 (priority 2020, dated 2024)
pEC50: −log10 of the molar value. Bridge positions count the residues as written; N and C are the ends. Square brackets hold non-standard residues; d marks the D form. Peptide text beside a SMILES is read from it. Hyp = O=C(O)[C@@H]1C[C@@H](O)CN1; Cit = NC(=O)NCCC[C@H](N)C(=O)O

Legend:
hAMY3 receptor = target: T1, hAMY3 receptor (Homo sapiens, UniProt O60896+P30988); test: cAMP assay for in vitro receptor activation, hAMY3-R; assay type: cell-based; conditions: cAMP assay, hAMY3 receptor; read-out: hAMY3R EC50
T1 sequence (P30988 25-474): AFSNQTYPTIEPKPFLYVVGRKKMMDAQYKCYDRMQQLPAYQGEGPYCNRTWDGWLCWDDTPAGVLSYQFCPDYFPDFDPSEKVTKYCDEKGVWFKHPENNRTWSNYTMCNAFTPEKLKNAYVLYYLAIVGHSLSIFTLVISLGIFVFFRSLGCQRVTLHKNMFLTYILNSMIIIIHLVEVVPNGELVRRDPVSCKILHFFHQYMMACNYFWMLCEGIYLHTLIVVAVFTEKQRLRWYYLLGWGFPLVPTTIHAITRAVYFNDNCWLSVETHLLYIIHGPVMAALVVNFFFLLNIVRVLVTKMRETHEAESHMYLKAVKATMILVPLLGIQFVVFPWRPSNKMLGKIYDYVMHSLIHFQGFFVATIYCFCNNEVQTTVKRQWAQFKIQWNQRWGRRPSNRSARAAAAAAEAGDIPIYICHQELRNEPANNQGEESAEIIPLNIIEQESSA
T1 sequence (O60896 24-148 partner): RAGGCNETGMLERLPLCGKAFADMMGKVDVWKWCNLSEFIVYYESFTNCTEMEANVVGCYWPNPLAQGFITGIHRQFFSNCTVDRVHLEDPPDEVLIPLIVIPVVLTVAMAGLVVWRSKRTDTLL
Procedure, shortened: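 Monoclonal cell line stably overexpressing hAMY3 receptor, plated in DPBS with 0.05% casein and 0.5 mM IBMX, was stimulated with graded compound doses for 30 min at room temperature. cAMP accumulation was read by time-resolved FRET one hour after adding detection reagents.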

hAM1 receptor = hAM1 receptor (Homo sapiens, UniProt O60895+Q16602); test: cAMP assay for in vitro receptor activation, hAM1-R; assay type: cell-based; conditions: cAMP assay, hAM1 receptor; read-out: hAM1R EC50
Procedure, shortened: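 cAMP accumulation was measured in a monoclonal cell line stably overexpressing the hAM1 receptor. Frozen aliquots were thawed and plated at 8000 cells/well in DPBS containing 0.05% casein and 0.5 mM IBMX.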

[1] = Physical stability of peptide analogues (Thioflavin T fibrillation); assay type: physicochemical; conditions: maximum ThT signal normalized between hAMY maximum and buffer background; 40° C., shaking, four days; pH 7 per table title
Procedure, shortened: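 Peptides in 50 mM sodium acetate pH 4 or 50 mM sodium phosphate pH 7 were preincubated 1 h, mixed with 4 μM ThT, held at 40° C with 700 rpm shaking before each read. Fluorescence (ex 450/em 480 nm) every 10 min for four days; LOESS-smoothed maximum signal normalized in percent between hAMY and buffer.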

Chain of hAM1 receptor (Q16602 23-461): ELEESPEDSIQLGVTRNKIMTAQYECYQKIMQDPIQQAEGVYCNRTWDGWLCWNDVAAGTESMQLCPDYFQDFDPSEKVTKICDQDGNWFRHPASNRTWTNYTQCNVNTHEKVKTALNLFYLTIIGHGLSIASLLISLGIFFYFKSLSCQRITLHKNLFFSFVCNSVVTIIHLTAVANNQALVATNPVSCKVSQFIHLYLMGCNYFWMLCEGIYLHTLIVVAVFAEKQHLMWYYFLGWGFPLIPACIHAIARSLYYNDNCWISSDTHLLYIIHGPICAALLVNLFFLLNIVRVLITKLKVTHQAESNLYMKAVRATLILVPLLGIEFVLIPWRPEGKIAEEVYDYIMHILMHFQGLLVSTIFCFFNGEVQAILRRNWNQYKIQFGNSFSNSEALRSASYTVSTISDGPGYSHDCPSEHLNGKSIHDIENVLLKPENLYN
Chain of hAM1 receptor (O60895 43-175 partner): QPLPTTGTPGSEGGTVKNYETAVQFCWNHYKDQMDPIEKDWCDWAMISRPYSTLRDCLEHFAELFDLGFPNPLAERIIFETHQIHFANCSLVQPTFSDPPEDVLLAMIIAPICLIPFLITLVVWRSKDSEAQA

| Compound | pEC50 (hAMY3 receptor) | pEC50 (hAM1 receptor) | Max ThT signal (%) [1] [%] |
| --- | --- | --- | --- |
| CC[C@H](C)[C@H](NC(=O)[C@H](CCC(N)=O)NC(=O)[C@H](Cc1c[nH]cn1)NC(=O)[C@H](C)NC(=O)[C@H](CC(C)C)NC(=O)[C@H](CCCNC(N)=O)NC(=O)[C@H](CCC(N)=O)NC(=O)[C@@H](NC(=O)[C@@H](NC(=O)[C@@H]1CSSC[C@H](NC(=O)CN)C(=O)N[C@@H](CCCNC(=N)N)C(=O)N[C@@H](Cc2ccccc2)C(=O)NCC(=O)N[C@@H]([C@@H](C)O)C(=O)N1)[C@@H](C)O)C(C)C)C(=O)N[C@@H](Cc1ccc(O)cc1)C(=O)N[C@@H](CCC(N)=O)C(=O)N[C@@H](Cc1ccccc1)C(=O)N[C@H](C(=O)N[C@@H](CC(=O)O)C(=O)N[C@@H](CCCCN)C(=O)N[C@@H](CC(=O)O)C(=O)N[C@@H](CCCCN)C(=O)N[C@@H](CC(=O)O)C(=O)N[C@@H](CC(N)=O)C(=O)N[C@H](C(=O)N[C@@H](C)C(=O)N1CCC[C@H]1C(=O)N[C@@H](CCCNC(=N)N)C(=O)N[C@@H](CO)C(=O)N[C@@H](CCCCN)C(=O)N[C@H](C(=O)N[C@@H](CO)C(=O)N1CCC[C@H]1C(=O)N[C@@H](CCC(N)=O)C(=O)NCC(=O)N1C[C@H](O)C[C@H]1C(N)=O)C(C)C)C(C)C)[C@@H](C)O [compound 305] (H-GCRFGTCTVQ[Cit]LAHQIYQFTDKDKDNVAPRSKVSPQG[Hyp]-NH2; disulfide 2-7) | 10.07 | < 5.30 | 24.600 |
| CC[C@H](C)[C@H](NC(=O)[C@H](CCC(N)=O)NC(=O)[C@H](CC(=O)O)NC(=O)[C@H](C)NC(=O)[C@H](CC(C)C)NC(=O)[C@H](Cc1c[nH]c2ccccc12)NC(=O)[C@H](C)NC(=O)[C@@H](NC(=O)[C@@H](NC(=O)[C@@H]1CSSC[C@H](NC(=O)[C@@H](N)CCCCN)C(=O)N[C@@H](CC(N)=O)C(=O)N[C@@H]([C@@H](C)O)C(=O)N[C@@H](CO)C(=O)N[C@@H]([C@@H](C)O)C(=O)N1)[C@@H](C)O)C(C)C)C(=O)N[C@H](C(=O)N[C@@H](CCC(N)=O)C(=O)N[C@@H](Cc1ccccc1)C(=O)N[C@@H](CO)C(=O)N[C@@H](CC(N)=O)C(=O)N[C@@H](CCCCN)C(=O)N[C@@H](CC(=O)O)C(=O)N[C@@H](CCCCN)C(=O)N[C@@H](C)C(=O)N[C@@H](CCC(N)=O)C(=O)N[C@H](C(=O)N[C@@H](CO)C(=O)N1CCC[C@H]1C(=O)N1CCC[C@H]1C(=O)N[C@H](C(=O)N[C@@H](CCC(=O)O)C(=O)N[C@H](C(=O)NCC(=O)N1CCC[C@H]1C(=O)N[C@@H](CC(N)=O)C(=O)N[C@@H](CO)C(=O)N1C[C@H](O)C[C@H]1C(N)=O)C(C)C)[C@@H](C)O)C(C)C)[C@@H](C)O [compound 306] (H-KCNTSTCTVAWLADQITQFSNKDKAQVSPPTEVGPNS[Hyp]-NH2; disulfide 2-7; N-terminus assumed) | 11.52 | < 5.30 | 3.000 |
| CC[C@H](C)[C@H](NC(=O)[C@H](CCC(N)=O)NC(=O)[C@H](CC(=O)O)NC(=O)[C@H](C)NC(=O)[C@H](CC(C)C)NC(=O)[C@H](Cc1c[nH]c2ccccc12)NC(=O)[C@H](CC(N)=O)NC(=O)[C@@H](NC(=O)[C@@H](NC(=O)[C@@H]1CSSC[C@H](NC(=O)[C@@H](N)CCCNC(=N)N)C(=O)N[C@@H](CC(N)=O)C(=O)N[C@@H](C)C(=O)N[C@@H](CO)C(=O)N[C@@H]([C@@H](C)O)C(=O)N1)[C@@H](C)O)C(C)C)C(=O)N[C@H](C(=O)N[C@@H](CCC(N)=O)C(=O)N[C@@H](Cc1ccccc1)C(=O)N[C@@H](CO)C(=O)N[C@@H](CC(N)=O)C(=O)N[C@@H](CCCCN)C(=O)N[C@@H](CC(=O)O)C(=O)N[C@@H](CCCCN)C(=O)N[C@@H](C)C(=O)N[C@@H](CCC(N)=O)C(=O)N[C@H](C(=O)N[C@@H](CO)C(=O)N1CCC[C@H]1C(=O)N1CCC[C@H]1C(=O)N[C@H](C(=O)N[C@@H](CCC(=O)O)C(=O)N[C@H](C(=O)NCC(=O)N1CCC[C@H]1C(=O)N[C@@H](CC(N)=O)C(=O)N[C@@H](CO)C(=O)N1C[C@H](O)C[C@H]1C(N)=O)C(C)C)[C@@H](C)O)C(C)C)[C@@H](C)O [compound 307] (H-RCNASTCTVNWLADQITQFSNKDKAQVSPPTEVGPNS[Hyp]-NH2; disulfide 2-7; N-terminus assumed) | 11.00 | < 5.30 | 11.200 |
| CC[C@H](C)[C@H](NC(=O)[C@H](C)NC(=O)[C@H](Cc1c[nH]cn1)NC(=O)[C@H](C)NC(=O)[C@H](CC(C)C)NC(=O)[C@H](Cc1c[nH]c2ccccc12)NC(=O)[C@H](CCC(N)=O)NC(=O)[C@@H](NC(=O)[C@@H](NC(=O)[C@@H]1CSSC[C@H](NC(=O)[C@@H](N)CCCCN)C(=O)N[C@@H](CC(N)=O)C(=O)N[C@@H]([C@@H](C)O)C(=O)N[C@@H](C)C(=O)N[C@@H]([C@@H](C)O)C(=O)N1)[C@@H](C)O)C(C)C)C(=O)N[C@@H](Cc1ccc(O)cc1)C(=O)N[C@@H](CCC(N)=O)C(=O)N[C@@H](Cc1ccccc1)C(=O)N[C@H](C(=O)N[C@@H](CC(=O)O)C(=O)N[C@@H](CCCCN)C(=O)N[C@@H](CC(=O)O)C(=O)N[C@@H](CCCCN)C(=O)N[C@@H](CC(=O)O)C(=O)N[C@@H](CC(N)=O)C(=O)N[C@H](C(=O)N[C@@H](C)C(=O)N1CCC[C@H]1C(=O)N1CCC[C@H]1C(=O)N[C@H](C(=O)N[C@@H](CC(N)=O)C(=O)N[C@H](C(=O)NCC(=O)N[C@@H](CO)C(=O)N[C@@H](CC(N)=O)C(=O)NCC(=O)N1C[C@H](O)C[C@H]1C(N)=O)C(C)C)[C@@H](C)O)C(C)C)[C@@H](C)O [compound 308] (H-KCNTATCTVQWLAHAIYQFTDKDKDNVAPPTNVGSNG[Hyp]-NH2; disulfide 2-7; N-terminus assumed) | 10.85 | < 5.30 | 14.500 |
| CC[C@H](C)[C@H](NC(=O)[C@H](CCC(N)=O)NC(=O)[C@H](Cc1c[nH]cn1)NC(=O)[C@H](C)NC(=O)[C@H](CC(C)C)NC(=O)[C@H](Cc1c[nH]c2ccccc12)NC(=O)[C@H](CCC(N)=O)NC(=O)[C@@H](NC(=O)[C@@H](NC(=O)[C@@H]1CSSC[C@H](NC(=O)[C@@H](N)CCCCN)C(=O)N[C@@H](CC(N)=O)C(=O)N[C@@H]([C@@H](C)O)C(=O)N[C@@H](C)C(=O)N[C@@H]([C@@H](C)O)C(=O)N1)[C@@H](C)O)C(C)C)C(=O)N[C@@H](C)C(=O)N[C@@H](CCC(N)=O)C(=O)N[C@@H](Cc1ccccc1)C(=O)N[C@H](C(=O)N[C@@H](CC(=O)O)C(=O)N[C@@H](CCCCN)C(=O)N[C@@H](CC(=O)O)C(=O)N[C@@H](CCCCN)C(=O)N[C@@H](CC(=O)O)C(=O)N[C@@H](CC(N)=O)C(=O)N[C@H](C(=O)N[C@@H](C)C(=O)N1CCC[C@H]1C(=O)N1CCC[C@H]1C(=O)N[C@H](C(=O)N[C@@H](CC(N)=O)C(=O)N[C@H](C(=O)NCC(=O)N[C@@H](CO)C(=O)N[C@@H](CC(N)=O)C(=O)NCC(=O)N1C[C@H](O)C[C@H]1C(N)=O)C(C)C)[C@@H](C)O)C(C)C)[C@@H](C)O [compound 309] (H-KCNTATCTVQWLAHQIAQFTDKDKDNVAPPTNVGSNG[Hyp]-NH2; disulfide 2-7; N-terminus assumed) | 10.60 | < 5.30 | 4.250 |
| CC[C@H](C)[C@H](NC(=O)[C@H](CCC(N)=O)NC(=O)[C@H](CC(=O)O)NC(=O)[C@H](C)NC(=O)[C@H](CC(C)C)NC(=O)[C@H](Cc1c[nH]c2ccccc12)NC(=O)[C@H](C)NC(=O)[C@@H](NC(=O)[C@@H](NC(=O)[C@@H]1CSSC[C@H](NC(=O)[C@@H](N)CCCCN)C(=O)N[C@@H](CC(N)=O)C(=O)N[C@@H]([C@@H](C)O)C(=O)N[C@@H](CO)C(=O)N[C@@H]([C@@H](C)O)C(=O)N1)[C@@H](C)O)C(C)C)C(=O)N[C@H](C(=O)N[C@@H](CCC(N)=O)C(=O)N[C@@H](Cc1ccccc1)C(=O)N[C@@H](CO)C(=O)N[C@@H](CC(=O)O)C(=O)N[C@@H](CCCCN)C(=O)N[C@@H](CC(=O)O)C(=O)N[C@@H](CCCCN)C(=O)N[C@@H](C)C(=O)N[C@@H](CC(N)=O)C(=O)N[C@H](C(=O)N[C@@H](CO)C(=O)N1CCC[C@H]1C(=O)N1CCC[C@H]1C(=O)N[C@H](C(=O)N[C@@H](CCC(=O)O)C(=O)N[C@H](C(=O)NCC(=O)N1CCC[C@H]1C(=O)N[C@@H](CC(N)=O)C(=O)N[C@@H](CO)C(=O)N1C[C@H](O)C[C@H]1C(N)=O)C(C)C)[C@@H](C)O)C(C)C)[C@@H](C)O [compound 310] (H-KCNTSTCTVAWLADQITQFSDKDKANVSPPTEVGPNS[Hyp]-NH2; disulfide 2-7) | 11.52 | < 5.30 | 3.500 |
